Laboratory results: patent US20250127790A1, “COMBINATION THERAPY USING VPS34 INHIBITORS” (Deciphera Pharmaceuticals, LLC, priority 2021, published 2025)

How the values were obtained:
[1] = system: Renca renal cell carcinoma cells; assay: IncuCyte live-cell imaging, Caspase 3/7 activity, Renca cells; format: cell-based; details: 2 μM Compound 1, ADU-S100, 24 hours
Description: Renca cells were treated with a combination of DMSO or 2 μM Compound 1 alone or in combination with STING agonist ADU-S100 for 24 hours. Treatment with 1 μM staurosporine was used as a positive control for apoptosis induction. To assess cell proliferation, 1000 cells/well were plated in 96-well plates. After 24 h, cells were treated with compounds in 100 μL complete medium. Phase-contrast images (10×) were acquired every 3 h for 24-72 h and cell confluence (%) was calculated using the IncuCyte S3 live-cell analysis system (Sartorius). For monitoring apoptosis, 5 μM of IncuCyte Caspase-3/7 Green Dye (#4440, Sartorius) was added to the medium at the time of treatment. Both phase-contrast and green fluorescent images were captured. Caspase 3/7 induction was calculated by counting green fluorescent objects per mm^2 and dividing it by the percentage of cell confluency.

[2] = system: CT26 colorectal cancer cells; assay: Cytokine secretion assay, combination with cGAMP, CT26 cells; format: cell-based, mouse; details: 24 hours, 5 μM Compound 1 or 10 μM Compound 2, 10 mg/mL cGAMP
Description: (§1) CT26 cells were treated for 24 hours with DMSO or VPS34 inhibitors (5 μM Compound 1 or 10 μM Compound 2) in combination with 10 mg/mL STING agonist cGAMP (green bars). Cells were washed with PBS and RNA was isolated using the PureLink RNA kit (#12183018A, Thermo Fisher Scientific) according to the manufacturer's protocol. Genomic DNA was removed using DNA-binding columns (RNeasy plus kit, #74134, Qiagen) and/or DNase treatment (#12185010, Thermo Fisher Scientific). RNA was quantified using NanoDrop (Thermo Fisher Scientific) and 50 ng/μL RNA was used for cDNA synthesis with SuperScript IV VILO Master Mix (#11756050, Thermo Fisher Scientific). Quantitative RT-PCR (qRT-PCR) was run with diluted cDNA (1:25 or 1:12.5), PowerUp SYBR Green Master Mix (#A25741, Thermo Fisher Scientific), and 200 nM primers (see below) on a CFX Connect RT-PCR system (BioRad). Data was analyzed using the ΔΔCT method. Results are mean±SEM of three independent experiments.
(§2) Cell culture medium was centrifuged at 1600 rpm for 10 min at 4° C. and obtained supernatant stored at −80° C. Cytokine levels were quantified using following Meso Scale Discovery (MSD) assays: mouse U-PLEX RANTES/CCL5 (#K152A2K) and U-PLEX IP-10/CXCL10 (#K152UFK). Assays were run on the SECTOR Quickplex Imager and analyzed using Discovery Workbench version 4.0 (MSD).

4T1 breast cancer cells [3] = assay: qRT-PCR, combination with cGAMP, 4T1 cells; format: cell-based, Mouse; details: 24 hours, 5 μM Compound 1 or 10 μM Compound 2, 10 mg/ml cGAMP
Description: as §1, with “4T1” for “CT26”, “mg/ml” for “mg/mL”

4T1 breast cancer cells [4] = assay: Cytokine secretion assay, combination with cGAMP, 4T1 cells; format: cell-based, mouse; details: 24 hours, 5 μM Compound 1 or 10 μM Compound 2, 10 mg/ml cGAMP
Description: as §1, with “4T1” for “CT26”, “mg/ml” for “mg/mL”
as §2

YUMM 1.7 melanoma cells = assay: qRT-PCR, combination with cGAMP, YUMM1.7 cells; format: cell-based, Mouse; details: 24 hours, 5 μM Compound 1 or 10 μM Compound 2, 10 mg/ml cGAMP
Description: as §1, with “YUMM1.7” for “CT26”, “mg/ml” for “mg/mL”

Nc1ncnc2c1ncn2[C@@H]1O[C@@H]2COP(=O)([S-])O[C@@H]3[C@H](O)[C@@H](COP([O-])(=S)O[C@H]2[C@H]1O)O[C@H]3n1cnc2c(N)ncnc21.[Na+].[Na+] (stereo partly drawn) [ADU-S100, reference compound]
mild effects: Caspase 3/7 activity [1]

C[C@@H]1COCCN1c1cc(N2CCCC[C@@H]2C(F)(F)F)[nH]c(=O)c1 [Compound 1, 4-((R)-3-methylmorpholino)-6-((R)-2-(trifluoromethyl)piperidin-1-yl)pyridin-2(1H)-one]
did not increase: CXCL10 mRNA expression (YUMM 1.7 melanoma cells)
increased: Caspase 3/7 activity [1] | CCL5 protein secretion [2] | CXCL10 protein secretion [2] | CCL5 mRNA expression (4T1 breast cancer cells [3]) | CXCL10 mRNA expression (4T1 breast cancer cells [3]) | CCL5 protein secretion (4T1 breast cancer cells [4]) | CXCL10 protein secretion (4T1 breast cancer cells [4]) | CCL5 mRNA expression (YUMM 1.7 melanoma cells)

C[C@@H]1COCCN1c1cc(=O)n2c(n1)N(Cc1cncc(Cl)c1)[C@H](C(F)(F)F)CC2 [Compound 2, (S)-9-((5-chloropyridin-3-yl)methyl)-2-((R)-3-methylmorpholino)-8-(trifluoromethyl)-6,7,8,9-tetrahydro-4H-pyrimido[1,2-a]pyrimidin-4-one]
increased: CCL5 protein secretion [2] | CXCL10 protein secretion [2] | CCL5 mRNA expression (4T1 breast cancer cells [3]) | CXCL10 mRNA expression (4T1 breast cancer cells [3]) | CCL5 protein secretion (4T1 breast cancer cells [4]) | CXCL10 protein secretion (4T1 breast cancer cells [4]) | CCL5 mRNA expression (YUMM 1.7 melanoma cells)
did not increase: CXCL10 mRNA expression (YUMM 1.7 melanoma cells)
